Where a name gives a salt, the structure may show the parent alone. Read-outs that look alike come from different tables or passages of the source.
Assays:
SUV39H2 = SUV39H2 (Homo sapiens (Human), UniProt Q9H5I1); details: read-out: IC50 (μM) Suv 39H2 assay
A549 = test: Cell-based assay, anti-proliferative activity (Cell Counting Kit-8, 72 hours); details: Homo sapiens, read-out: IC50 (μM) A549
In short: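 Growth read-out after inhibitor treatment of plated cells; potency expressed as IC50.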

PC14 = test: as above; details: Homo sapiens, read-out: IC50 (μM) PC14
In short: (§1)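 CCK-8 viability read 72 h after compound exposure over an 8-point series from 1.5625 to 100 micro-M plus zero. Seeding density 2,000–3,000 cells/well; IC50 from the dilution series.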

HCT-116 = test: as above; details: Homo sapiens, read-out: IC50 (μM) HCT-116
In short: as §1

CCD-18Co = test: as above; details: Homo sapiens, read-out: IC50 (μM) CCD-18Co
In short: as §1

HFL1 = test: as above; details: Homo sapiens, read-out: IC50 (μM) HFL1
In short: as §1

[1] = A549 cells, Cell Counting Kit-8, 72 hours
[2] = PC-14, PC14 cells, Cell Counting Kit-8, 72 hours
[3] = HCT-116 cells, Cell Counting Kit-8, 72 hours
[4] = CCD-18Co cells, Cell Counting Kit-8, 72 hours
[5] = HFL1 cells, Cell Counting Kit-8, 72 hours
[6] = A549 cells, 72 hours, Cell Counting Kit-8
[7] = PC-14, PC14 cells, 72 hours, Cell Counting Kit-8
[8] = HCT-116 cells, 72 hours, Cell Counting Kit-8
[9] = CCD-18Co cells, 72 hours, Cell Counting Kit-8
[10] = HFL1 cells, 72 hours, Cell Counting Kit-8

Sequence of SUV39H2 (Q9H5I1 whole entry): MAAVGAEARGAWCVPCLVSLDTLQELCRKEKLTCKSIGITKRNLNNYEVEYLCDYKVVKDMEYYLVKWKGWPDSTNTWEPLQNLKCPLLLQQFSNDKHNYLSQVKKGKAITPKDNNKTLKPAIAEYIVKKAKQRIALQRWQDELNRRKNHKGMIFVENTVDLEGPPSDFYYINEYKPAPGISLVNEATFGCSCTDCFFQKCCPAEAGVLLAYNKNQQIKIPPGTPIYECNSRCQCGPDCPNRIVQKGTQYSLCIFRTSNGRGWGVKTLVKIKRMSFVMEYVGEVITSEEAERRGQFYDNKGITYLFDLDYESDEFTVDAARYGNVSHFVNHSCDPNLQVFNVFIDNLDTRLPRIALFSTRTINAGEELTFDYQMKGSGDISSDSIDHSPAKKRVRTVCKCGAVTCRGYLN

Compound	IC50 (SUV39H2; enzyme assay) [µM]	IC50 (A549; [1]) [µM]	IC50 (PC14; [2]) [µM]	IC50 (HCT-116; [3]) [µM]	IC50 (CCD-18Co; [4]) [µM]	IC50 (HFL1; [5]) [µM]	IC50 (A549; A549, 72 h) [µM]	IC50 (PC14; PC-14, 72 h) [µM]	IC50 (HCT-116; HCT-116, 72 h) [µM]	IC50 (CCD-18Co; CCD-18Co, 72 h) [µM]	IC50 (HFL1; HFL1, 72 h) [µM]	IC50 (A549; [6]) [µM]	IC50 (PC14; [7]) [µM]	IC50 (HCT-116; [8]) [µM]	IC50 (CCD-18Co; [9]) [µM]	IC50 (HFL1; [10]) [µM]	IC50 (SUV39H2) [µM]
COc1cc(OC)c(-c2cn3ccc(N4CCN(CCN5CCN(C(=O)OC(C)(C)C)CC5)CC4)cc3n2)cc1Cl [Example 136, tert-butyl 4-(2-(4-(2-(5-chloro-2,4-dimethoxyphenyl)imidazo[1,2-a]pyridin-7-yl)piperazin-1-yl)ethyl)piperazine-1-carboxylate]	0.0166	1.5	2.2	1.5	1.8	1.8											
COc1cc(OC)c(-c2cn3ccc(N(C)CCN)cc3n2)cc1Cl [Example 54, N^1-(2-(5-chloro-2,4-dimethoxyphenyl)imidazo[1,2-a]yridine-7-yl)-N1-metylethane-1,2-diamine]	0.00585						4.2	4.9	3.1	3.3	2.5						
COc1cc(OCCCN(C)C)c(-c2cn3ccc(N4CCC(NS(C)(=O)=O)CC4)cc3n2)cc1Cl [Example 164, N-(1-(2-(5-chloro-2-(3-(dimethylamino)propoxy)-4-methoxyphenyl)-imidazo[1,2-a]pyridin-7-yl)piperidin-4-yl)methanesulfonamide]	0.0211	10	8.8	9	7.2	8.6											
COc1cc(OC)c(-c2cn3ccc(N4CCC(N5CCCS5(=O)=O)CC4)cc3n2)cc1Cl [Example 182, 2-{1-[2-(5-chloro-2,4-dimethoxyphenyl)imidazo[1,2-a]pyridin-7-yl]piperidin-4-yl}isothiazolidine 1,1-dioxide]	0.00697	1.7	1.5	1.9	2.6	1.8											
COc1cc(OC)c(-c2cn3ccc(N4CCC(NC(=O)C(C)(C)C)CC4)cc3n2)cc1Cl [Example 123, N-(1-(2-(5-chloro-2,4-dimethoxyphenyl)imidazo[1,2-a]pyridin-7-yl)piperidin-4-yl)pivalamide]	0.00771	3.3	2.2	2.6	3.4	2											
COc1cc(OC)c(-c2cn3ccc(N4CCC(CN(C)C)CC4)cc3n2)cc1Cl [Example 97, 1-(1-(2-(5-Chloro-2,4-dimethoxyphenyl)imidazo[1,2-a]pyridin-7-yl)piperidin-4-yl)-N,N-dimethylmethanamine]	0.00768	3.2	2.3	2.8	6.5	2.4											
COc1cc(OCCCN(C)C)c(-c2cn3ccc(N4CCCN(C(=O)OC(C)(C)C)CC4)cc3n2)cc1Cl [Example 211, tert-butyl 4-(2-{5-chloro-2-[3-(dimethylamino)propoxy]-4-methoxyphenyl}imidazo[1,2-a]pyridin-7-yl)-1,4-diazepane-1-carboxylate]	0.0563	2.9	0.8	2.4	1.4	1.4											
COc1cc(OC)c(-c2cn3ccc(-c4ccc(C(=O)NCC5CCCNC5)cc4)cc3n2)cc1Cl (stereo not drawn) [Example 251, 4-(2-(5-chloro-2,4-dimethoxyphenyl)imidazo[1,2-a]pyridin-7-yl)-N-(piperidin-3-ylmethyl)benzamide]	0.0308											9.7	5.4	5.8	10	8.3	
COc1cc(OC)c(-c2cn3cc(NCCN)c(N4CCN(S(=O)(=O)C5CC5)CC4)nc3n2)cc1Cl [Example 222, N^1-(2-(5-chloro-2,4-dimethoxyphenyl)-7-(4-(cyclopropylsulfonyl)-piperazin-1-yl)imidazo[1,2-a]pyrimidin-6-yl)ethane-1,2-diamine]	0.00597											10	10	10	10	10	
COc1cc(OC)c(-c2cn3ccc(N4CCC(O)C4)cc3n2)cc1Br (stereo not drawn) [Example 7, 1-(2-(5-bromo-2,4-dimethoxyphenyl)imidazo[1,2-a]pyridin-7-yl)pyrrolidin-3-ol]	0.00544						6.9	6.1	7	7.6	6.8						
COCCCN1CCN(c2ccn3cc(-c4cc(Cl)c(OC)cc4OC)nc3c2)CC1 [Example 96, 2-(5-chloro-2,4-dimethoxyphenyl)-7-(4-(3-methoxypropyl)piperazin-1-yl)imidazo[1,2-a]pyridine]	0.00833	6.9	6.4	9	6.8	8.4											
COc1cc(OC)c(-c2cn3ccc(N4CCN(c5ccnc(N6CCCCC6)n5)CC4)cc3n2)cc1Cl [Example 295, 2-(5-chloro-2,4-dimethoxyphenyl)-7-(4-(2-(piperidin-1-yl)pyrimidin-4-yl)piperazin-1-yl)imidazo[1,2-a]pyridine]	0.0598											0.89	0.93	0.93	1.3	1.4	
COc1cc(OC)c(-c2cn3ccc(-c4ccc(C(=O)NCC(O)CN)cc4)cc3n2)cc1Cl (stereo not drawn) [Example 256, N-(3-amino-2-hydroxypropyl)-4-(2-(5-chloro-2,4-dimethoxyphenyl)-imidazo[1,2-a]pyridin-7-yl)benzamide]	0.0217											10	10	10	10	10	
COc1cc(OC)c(-c2cn3ccc(N4CCC(CCN)CC4)cc3n2)cc1Cl [Example 72, 2-(1-(2-(5-chloro-2,4-dimethoxyphenyl)imidazo[1,2-a]pyridine-7-yl)piperidin-4-yl)ethanamine dihydrochloride]							5.3	2.5	4.9	7	3.7						0.00875
COc1cc(OCCCN(C)C)c(-c2cn3ccc(N4CCN(S(=O)(=O)C(C)C)CC4)nc3n2)cc1Cl [Example 226, 3-(4-chloro-2-(7-(4-(isopropylsulfonyl)piperazin-1-yl)imidazo[1,2-a]-pyrimidin-2-yl)-5-methoxyphenoxy)-N,N-dimethylpropan-1-amine]	0.0655											10	5.5	7.8	10	8.9	
COc1cc(OC)c(-c2cn3ccc(N[C@H]4CC[C@H](CN5CCN(Cc6ccccc6)CC5)CC4)cc3n2)cc1Cl [Example 278, trans-N-(4-((4-benzylpiperazin-1-yl)methyl)cyclohexyl)-2-(5-chloro-2,4-dimethoxyphenyl)imidazo[1,2-a]pyridin-7-amine 2,2,2-trifluoroacetate]	0.0707							1.3	0.84	1.2	0.73	1.4					
COc1cc(OC)c(-c2cn3ccc(N4CCC(NP(=O)(OC)OC)CC4)cc3n2)cc1Cl [Example 198, Dimethyl (1-(2-(5-chloro-2,4-dimethoxyphenyl)imidazo[1,2-a]pyridin-7-yl)piperidin-4-yl)phosphoramidate]	0.00435	3.2	3.7	5.7	3.5	1.6											
COc1cc(OC)c(-c2cn3ccc(N[C@H]4CC[C@H](NCc5ccccc5)CC4)cc3n2)cc1Cl [Example 291, N^1-benzyl-N^4-(2-(5-chloro-2,4-dimethoxyphenyl)imidazo[1,2-a]pyridin-7-yl)-trans-cyclohexane-1,4-diamine]	0.041											0.72	0.71	0.67	0.76	0.93	
CC[C@@H](C)[C@H](N)C(=O)Nc1ccn2cc(-c3cc(Cl)c(OC)cc3OC)nc2c1 [Example 258, (2S,3R)-2-amino-N-(2-(5-chloro-2,4-dimethoxyphenyl)imidazo[1,2-a]-pyridin-7-yl)-3-methylpentanamide]	0.0639											5.8	5.7	7.6	4.6	6.8	
COc1cc(OC)c(-c2cn3ccc(N4CCN(C(=O)C5CCCC5)CC4)nc3n2)cc1Cl [Example 243, (4-(2-(5-chloro-2,4-dimethoxyphenyl)imidazo[1,2-a]pyrimidin-7-yl)-piperazin-1-yl)(cyclopentyl)methanone]	0.0183											4.7	3.3	5.8	6.1	4.8	

Reference: patent US10508109B2 (priority 2015, dated 2019)
